{
  "source": "paper PMC5297880",
  "about": "(Clinical Pharmacology in Drug Development, 2016)",
  "key": {"CYP3A5": {"tested_on": "CYP3A5", "conditions": "CYP3A5-expressing human liver microsomes; cited from earlier work"}, "CYP2B6 [1]": {"tested_on": "CYP2B6", "conditions": "CYP2B6-expressing human liver microsomes; cited from earlier work"}, "UGT1A9": {"tested_on": "UGT1A9", "conditions": "read-out: IC50 for propofol glucuronidation [UGT1A9]; human liver microsomes; cited from earlier work"}, "CYP3A4 [2]": {"tested_on": "CYP3A4", "conditions": "CYP3A4-expressing human liver microsomes; cited from earlier work"}, "CYP2C8 [3]": {"tested_on": "CYP2C8", "conditions": "CYP2C8-expressing human liver microsomes; cited from earlier work"}, "P-gp": {"tested_on": "P-gp", "conditions": "read-out: IC50 P-gp inhibition; [3H]digoxin substrate; ref data on file; cited from earlier work"}, "CYP3A7": {"tested_on": "CYP3A7", "conditions": "CYP3A7-expressing human liver microsomes; cited from earlier work"}, "[4]": {"assay": "Safety: treatment-emergent adverse events in healthy subjects", "type": "in vivo, human"}, "CYP2B6 [5]": {"tested_on": "CYP2B6", "conditions": "human liver microsomes; S-mephenytoin demethylation; P < .01; ref data on file; cited from earlier work"}, "OCT2": {"tested_on": "OCT2", "conditions": "[14C]metformin substrate, ref data on file, cited from earlier work"}, "[6]": {"type": "in vivo, human", "conditions": "for AUCτ geometric least-squares mean ratio (90%CI) / Cmax geometric least-squares mean ratio (90%CI): lopinavir/ritonavir plus isavuconazole to isavuconazole alone; for AUC: AUCτ, day 13 (24 hours), mean (SD)"}, "CYP3A4 [7]": {"tested_on": "CYP3A4", "conditions": "cultured human hepatocytes; cited from earlier work"}, "CYP2C8 [8]": {"tested_on": "CYP2C8", "conditions": "human liver microsomes; paclitaxel hydroxylation; P < .05; ref data on file; cited from earlier work"}, "UGT2B7": {"tested_on": "UGT2B7", "conditions": "read-out: IC50 for morphine 3-glucuronidation [UGT2B7]; human liver microsomes; cited from earlier work"}, "MATE1": {"tested_on": "MATE1", "conditions": "read-out: IC50 MATE1 inhibition; [14C]metformin substrate; ref data on file; cited from earlier work"}, "CYP2B6 [9]": {"tested_on": "CYP2B6", "conditions": "cultured human hepatocytes; cited from earlier work"}, "UGT1A1": {"tested_on": "UGT1A1", "conditions": "read-out: IC50 for 17β-estradiol 3-glucuronidation [UGT1A1]; human liver microsomes; cited from earlier work"}, "[10]": {"type": "in vivo, human", "conditions": "for decrease in mean AUCτ in presence vs absence of isavuconazole / decrease in mean Cmax in presence vs absence of isavuconazole: Part 2, isavuconazole 200 mg; for AUC / Cmax: both, human, plasma, oral; for AUC: AUCτ, day 13 (12 hours), mean (SD); for Cmax: day 13, mean (SD)"}, "[11]": {"conditions": "Part 2, lopinavir/ritonavir plus isavuconazole to lopinavir/ritonavir alone"}, "[12]": {"conditions": "Part 2, lopinavir/ritonavir 400/100 mg + isavuconazole 200 mg, n = 16"}, "[13]": {"conditions": "Part 2, lopinavir/ritonavir 400/100 mg alone, n = 18"}},
  "note": "Read-outs that look alike come from different tables or passages of the source.",
  "data": [
    {"smiles": "C[C@@H](c1nc(-c2ccc(C#N)cc2)cs1)[C@](O)(Cn1cncn1)c1cc(F)ccc1F", "note": "[Isavuconazole, isavuconazole]", "values": [
      {"measurement": "% remaining", "setting": "CYP3A5", "result": 68.4, "unit": "% remaining"},
      {"measurement": "% remaining", "setting": "CYP2B6 [1]", "result": "> 98", "unit": "% remaining"},
      {"measurement": "IC50", "setting": "UGT1A9", "result": 19, "unit": "µM"},
      {"measurement": "% remaining", "setting": "CYP3A4 [2]", "result": 33.8, "unit": "% remaining"},
      {"measurement": "% remaining", "setting": "CYP2C8 [3]", "result": "> 98", "unit": "% remaining"},
      {"measurement": "IC50", "setting": "P-gp", "result": 25.7, "unit": "µM"},
      {"measurement": "% remaining", "setting": "CYP3A7", "result": "> 98", "unit": "% remaining"},
      {"measurement": "subjects who experienced TEAEs", "setting": "[4]; Part 1 (isavuconazole 100 mg), all mild", "result": "2 (33.3%) n (%)"},
      {"measurement": "TEAEs overall, subjects", "setting": "[4]; Part 2", "result": "11 (61.1%) n (%)"},
      {"measurement": "subjects with TEAEs in system organ class gastrointestinal disorders", "setting": "[4]; Part 2, text", "result": 16.7, "unit": "%"},
      {"measurement": "correlation (r) of isavuconazole metabolism with CYP2B6 activity", "setting": "CYP2B6 [5]", "result": 0.65},
      {"measurement": "IC50", "setting": "OCT2; read-out: IC50 OCT2 inhibition", "result": 1.97, "unit": "µM"},
      {"measurement": "Ki", "setting": "OCT2; read-out: Ki OCT2 inhibition", "result": 0.69, "unit": "µM"},
      {"measurement": "AUCτ geometric least-squares mean ratio (90%CI)", "setting": "[6]; Part 1 (isavuconazole 100 mg)", "result": "213 (174, 262) %"},
      {"measurement": "Cmax geometric least-squares mean ratio (90%CI)", "setting": "[6]; Part 1 (isavuconazole 100 mg)", "result": "196 (155, 248) %"},
      {"measurement": "increase in mean AUCτ in presence vs absence of lopinavir/ritonavir", "setting": "[6]; Part 1, isavuconazole 100 mg", "result": 113, "unit": "%"},
      {"measurement": "increase in mean Cmax in presence vs absence of lopinavir/ritonavir", "setting": "[6]; Part 1, isavuconazole 100 mg", "result": 96, "unit": "%"},
      {"measurement": "AUCτ geometric least-squares mean ratio (90%CI)", "setting": "[6]; Part 2 (isavuconazole 200 mg)", "result": "196 (164, 235) %"},
      {"measurement": "Cmax geometric least-squares mean ratio (90%CI)", "setting": "[6]; Part 2 (isavuconazole 200 mg)", "result": "174 (146, 208) %"},
      {"measurement": "increase in mean AUCτ in presence vs absence of lopinavir/ritonavir", "setting": "[6]; Part 2, isavuconazole 200 mg", "result": 96, "unit": "%"},
      {"measurement": "increase in mean Cmax in presence vs absence of lopinavir/ritonavir", "setting": "[6]; Part 2, isavuconazole 200 mg", "result": 74, "unit": "%"},
      {"measurement": "Tmax", "setting": "[6]; Part 2, isavuconazole 200 mg + lopinavir/ritonavir, day 13, median (range)", "result": "3.0 (1.0‐4.0) hours"},
      {"measurement": "Tmax", "setting": "[6]; both, human, plasma, oral, 100 mg", "result": 3, "unit": "h"},
      {"measurement": "Tmax", "setting": "[6]; both, human, plasma, oral, 200 mg", "result": 3, "unit": "h"},
      {"measurement": "AUC", "setting": "[6]; both, human, plasma, oral, Part 1, isavuconazole 100 mg + lopinavir/ritonavir 400/100 mg BID, n = 6", "result": 116000, "unit": "ng·h/mL"},
      {"measurement": "AUC", "setting": "[6]; both, human, plasma, oral, Part 2, isavuconazole 200 mg + lopinavir/ritonavir 400/100 mg BID, n = 16", "result": 222000, "unit": "ng·h/mL"},
      {"measurement": "increase of CYP3A4 activity", "setting": "CYP3A4 [7]", "result": 3.4, "unit": "fold"},
      {"measurement": "increase of CYP3A4 mRNA", "setting": "CYP3A4 [7]", "result": 6.4, "unit": "fold"},
      {"measurement": "correlation (r) of isavuconazole metabolism with CYP2C8 activity", "setting": "CYP2C8 [8]", "result": 0.57},
      {"measurement": "IC50", "setting": "UGT2B7", "result": 44, "unit": "µM"},
      {"measurement": "IC50", "setting": "MATE1", "result": 6.31, "unit": "µM"},
      {"measurement": "increase of CYP2B6 activity", "setting": "CYP2B6 [9]", "result": 13.4, "unit": "fold"},
      {"measurement": "increase of CYP2B6 mRNA", "setting": "CYP2B6 [9]", "result": 11.4, "unit": "fold"},
      {"measurement": "IC50", "setting": "UGT1A1", "result": 9, "unit": "µM"}
    ]},
    {"smiles": "Cc1cccc(C)c1OCC(=O)N[C@@H](Cc1ccccc1)[C@@H](O)C[C@H](Cc1ccccc1)NC(=O)[C@H](C(C)C)N1CCCNC1=O", "note": "[Lopinavir, lopinavir]", "values": [
      {"measurement": "decrease in mean AUCτ in presence vs absence of isavuconazole", "setting": "[10]", "result": 27, "unit": "%"},
      {"measurement": "decrease in mean Cmax in presence vs absence of isavuconazole", "setting": "[10]", "result": 23, "unit": "%"},
      {"measurement": "AUCτ geometric least-squares mean ratio (90%CI)", "setting": "[10]; [11]", "result": "73 (56, 96) %"},
      {"measurement": "Cmax geometric least-squares mean ratio (90%CI)", "setting": "[10]; [11]", "result": "77 (62, 95) %"},
      {"measurement": "AUC", "setting": "[10]; [12]", "result": 73300, "unit": "ng·h/mL"},
      {"measurement": "AUC", "setting": "[10]; [13]", "result": 91000, "unit": "ng·h/mL"}
    ]},
    {"smiles": "CC(C)c1nc(CN(C)C(=O)N[C@H](C(=O)N[C@@H](Cc2ccccc2)C[C@H](O)[C@H](Cc2ccccc2)NC(=O)OCc2cncs2)C(C)C)cs1", "note": "[Ritonavir, ritonavir]", "values": [
      {"measurement": "decrease in mean AUCτ in presence vs absence of isavuconazole", "setting": "[10]", "result": 31, "unit": "%"},
      {"measurement": "decrease in mean Cmax in presence vs absence of isavuconazole", "setting": "[10]", "result": 33, "unit": "%"},
      {"measurement": "AUC", "setting": "[10]; [12]", "result": 4000, "unit": "ng·h/mL"},
      {"measurement": "AUC", "setting": "[10]; [13]", "result": 5500, "unit": "ng·h/mL"},
      {"measurement": "Cmax", "setting": "[10]; Part 2, lopinavir/ritonavir + isavuconazole", "result": 800, "unit": "ng/mL"},
      {"measurement": "Cmax", "setting": "[10]; Part 2, lopinavir/ritonavir alone", "result": 1200, "unit": "ng/mL"}
    ]}
  ]
}
